Assay results reported in patent US8084479B2, “Thiazole compounds and methods of use” (Amgen Inc., priority 2006, dated 2011).

Biological target: PKBα (Homo sapiens, UniProt P31749)
Assay: PKB kinase assay (P33-labeled ATP, peptide substrate, filter plate)
Format: biochemical
Settings: PKBα enzyme (full length or kinase domain with pleckstrin domain deleted)
Description: The kinase assay for evaluating PKB activity comprises active PKB enzymes, a PKB specific substrate, and P^33-labeled ATP. […] The phosphorylated substrate was captured by a phosphocellulose membrane filter plate (MLLIPORE) and measured by a Wallac Microbeta liquid scintillation counter (Perkin Elmer).

PKBα, sequence (P31749 118-480 limits assumed): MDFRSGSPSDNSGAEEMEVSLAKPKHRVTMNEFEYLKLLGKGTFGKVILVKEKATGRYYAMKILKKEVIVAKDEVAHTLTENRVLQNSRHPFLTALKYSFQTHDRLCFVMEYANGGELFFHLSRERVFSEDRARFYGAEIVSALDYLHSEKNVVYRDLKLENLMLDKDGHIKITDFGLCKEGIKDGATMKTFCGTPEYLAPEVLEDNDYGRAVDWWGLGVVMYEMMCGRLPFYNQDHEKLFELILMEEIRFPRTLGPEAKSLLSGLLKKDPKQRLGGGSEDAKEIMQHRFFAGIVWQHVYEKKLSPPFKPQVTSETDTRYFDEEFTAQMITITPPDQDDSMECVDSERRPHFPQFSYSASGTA

Structure (SMILES)	IC50
CC#Cc1nc(NC[C@@H](N)Cc2ccc(C(F)(F)F)cc2)sc1-c1ccc2c(c1)CC(=O)N2 [Example 152, 5-(2-((S)-2-amino-3-(4-(trifluoromethyl)phenyl)propylamino)-4-(prop-1-ynyl)thiazol-5-yl)indolin-2-one]	< 50 nM
COc1cc(C[C@H](N)CNc2ncc(-c3ccc4cnccc4c3)s2)cnc1C(F)(F)F [Example 173]	< 50 nM
N[C@H](CNc1ncc(-c2ccc3c(c2)CNC3=O)s1)Cc1ccc(C(F)(F)F)cc1 [Example 240, 5-(2-((S)-2-amino-3-(4-(trifluoromethyl)phenyl)propylamino)thiazol-5-yl)isoindolin-1-one]	50 to 1000 nM
Cc1n[nH]c2ccc(-c3cnc(NC[C@@H](N)Cc4ccc(Cl)cc4)s3)cc12 [Example 3, N—((S)-2-amino-3-(4-chlorophenyl)propyl)-5-(3-methyl-1H-indazol-5-yl)thiazol-2-amine]	50 to 1000 nM
N[C@H](CNc1nc(C(F)(F)F)c(-c2ccc3cnccc3c2)s1)Cc1ccc(Cl)cc1 [Example 168]	50 to 1000 nM
CC(C)(O)C#Cc1nc(NC[C@@H](N)Cc2ccc(C(F)(F)F)cc2)sc1-c1ccc2cnccc2c1 [Example 79, 4-(2-((S)-2-Amino-3-(4-(trifluoromethyl)phenyl)propylamino)-5-(isoquinolin-6-yl)thiazole-4-yl)-2-methylbut-3-yn-2-ol]	50 to 1000 nM
N[C@H](CNc1nc(C#CCO)c(-c2ccc3cnccc3c2)s1)Cc1ccc(C(F)(F)F)cc1 [Example 140, 3-(2-((S)-2-amino-3-(4-(trifluoromethyl)phenyl)propylamino)-5-(isoquinolin-6-yl)thiazol-4-yl)prop-2-yn-1-ol]	< 50 nM
N[C@H](CNc1ncc(-c2ccc3cncnc3c2)s1)Cc1ccc(C(F)(F)F)cc1 [Example 253, N—((S)-2-Amino-3-(4-(trifluoromethyl)phenyl)propyl)-5-(quinazolin-7-yl)thiazol-2-amine]	< 50 nM
N[C@H](CNc1ncc(-c2ccc3cnccc3c2)s1)Cc1cc(F)cc(F)c1 [Example 161, N—((S)-2-amino-3-(3,5-difluorophenyl)propyl)-5-(isoquinolin-6-yl)thiazol-2-amine]	50 to 1000 nM
N#Cc1nc(NC[C@@H](N)Cc2ccc(C(F)(F)F)cc2)sc1-c1ccc2c(c1)CC(=O)N2 [Example 61, 2-((S)-2-amino-3-(4-(trifluoromethyl)phenyl)propylamino)-5-(2-oxoindolin-5-yl)thiazole-4-carbonitrile]	1000 to 10000 nM
CN(C)C(=O)c1nc(NC[C@@H](N)Cc2ccc(C(F)(F)F)cc2)sc1-c1ccc2cnccc2c1 [Example 194, 2-((S)-2-amino-3-(4-(trifluoromethyl)phenyl)propylamino)-5-(isoquinolin-6-yl)-N,N-dimethylthiazole-4-carboxamide]	50 to 1000 nM
NC(CNc1ncc(-c2ccc3c(c2)CC(=O)N3)s1)Cc1ccc(O)c(F)c1 (stereo not drawn) [Example 217, 5-(2-(2-Amino-3-(3-fluoro-4-hydroxyphenyl)propylamino)thiazol-5-yl)indolin-2-one]	50 to 1000 nM
N[C@H](CNc1ncc(-c2nc3ccncc3s2)s1)Cc1ccc(Cl)c(Cl)c1 [Example 97, N—((S)-2-Amino-3-(3,4-dichlorophenyl)propyl)-5-(thiazolo[5,4-c]pyridin-2-yl)thiazol-2-amine]	50 to 1000 nM
Cn1c(=O)[nH]c2ccc(-c3sc(NC[C@@H](N)Cc4ccc(F)cc4)nc3-c3ccccc3F)cc21 [Example 250, 6-(2-((S)-2-amino-3-(4-fluorophenyl)propylamino)-4-(2-fluorophenyl)thiazol-5-yl)-1-methyl-1H-benzo[d]imidazol-2(3H)-one]	1000 to 10000 nM
N[C@H](CNc1ncc(-c2ccc3c(c2)CC(=O)N3)s1)Cc1cc(F)cc(F)c1 [Example 163, 5-(2-((S)-2-amino-3-(3,5-difluorophenyl)propylamino)thiazol-5-yl)indolin-2-one]	1000 to 10000 nM
C/C=C/[C@@H](c1ccc(C(F)(F)F)cc1)[C@H](N)CNc1ncc(-c2ccc3cnccc3c2)s1 [Example 154, N-((2S,3S,E)-2-amino-3-(4-(trifluoromethyl)phenyl)hex-4-enyl)-5-(isoquinolin-6-yl)thiazol-2-amine]	< 50 nM
N[C@H](CNc1ncc(-c2cc3c(cc2F)NC(=O)C3)s1)Cc1ccc(C(F)(F)F)nc1 [Example 215, 5-(2-((S)-2-amino-3-(6-(trifluoromethyl)pyridin-3-yl)propylamino)thiazol-5-yl)-6-fluoroindolin-2-one]	50 to 1000 nM
COCc1nc(N(C[C@@H](N)Cc2ccc(Cl)cc2)C(C)=O)sc1-c1nc2ccncc2s1 [Example 25, N—((S)-2-amino-3-(4-chlorophenyl)propyl)-N-(4-(methoxymethyl)-5-(thiazolo[5,4-c]pyridin-2-yl)thiazol-2-yl)acetamide]	50 to 1000 nM
CN(C)Cc1nc(NC[C@@H](N)Cc2ccc(C(F)(F)F)cc2)sc1-c1ccc2cnccc2c1 [Example 81, N—((S)-2-Amino-3-(4-(trifluoromethyl)phenyl)propyl)-4-((dimethylamino)methyl)-5-(isoquinolin-6-yl)thiazol-2-amine]	50 to 1000 nM
N[C@H](CNc1nc(-c2ccccc2F)c(-c2ccc3cnccc3c2)s1)Cc1ccc(F)cc1 [Example 106, N—((S)-2-Amino-3-(4-fluorophenyl)propyl)-4-(2-fluorophenyl)-5-(isoquinolin-6-yl)thiazol-2-amine]	50 to 1000 nM
N[C@H](CNc1ncc(-c2ccc3c(c2)CC(=O)N3)s1)Cc1ccc(C(F)(F)F)cc1 [Example 42, 5-(2-((S)-2-amino-3-(4-(trifluoromethyl)phenyl)propylamino)thiazol-5-yl)indolin-2-one]	< 50 nM
N[C@@H](CNc1ncc(-c2ccc3c(c2)CC(=O)N3)s1)Cc1ccc(C(F)(F)F)cc1 [Example 137, 5-(2-((R)-2-Amino-3-(4-(trifluoromethyl)phenyl)propylamino)thiazol-5-1)indolin-2-one]	50 to 1000 nM
Cc1n[nH]c2ccc(-c3sc(NC[C@@H](N)Cc4ccc(C(F)(F)F)cc4)nc3C#CCO)cc12 [Example 149, 3-(2-((S)-2-amino-3-(4-(trifluoromethyl)phenyl)propylamino)-5-(3-methyl-1H-indazol-5-yl)thiazol-4-yl)prop-2-yn-1-ol]	< 50 nM
Cc1nc(NC[C@@H](N)Cc2ccc(C(F)(F)F)cc2)sc1-c1nc2ccncc2s1 [Example 24, N—((S)-2-amino-3-(4-(trifluoromethyl)phenyl)propyl)-4-methyl-5-(thiazolo[5,4-c]pyridin-2-yl)thiazol-2-amine]	50 to 1000 nM
Cc1n[nH]c2ccc(-c3cnc(NC[C@@H](N)Cc4c[nH]c5ccccc45)s3)cc12 [Example 2, N—((S)-2-amino-3-(1H-indol-3-yl)propyl)-5-(3-methyl-1H-indazol-5-yl)thiazol-2-amine]	50 to 1000 nM
N[C@H](CNc1ncc(-c2cc(F)c3c(c2)CC(=O)N3)s1)Cc1ccc(C(F)(F)F)cc1 [Example 220, 5-(2-((S)-2-amino-3-(4-(trifluoromethyl)phenyl)propylamino)thiazol-5-yl)-7-fluoroindolin-2-one]	< 50 nM
N[C@H](CNc1ncc(-c2ccc3c(c2)CC(=O)N3)s1)Cc1c[nH]c2ccccc12 [Example 74, 5-(2-((S)-2-amino-3-(1H-indol-3-yl)propylamino)thiazol-5-yl)indolin-2-one ditrifluoroacetate]	1000 to 10000 nM
